Legend:
Test in all cases: relative viability (nuclei count vs DMSO), 5 days (fraction); higher = more cells survive
Wnt-C59 + Palbociclib = compound: CC1=NC=CC(=C1)C2=CC=C(C=C2)CC(=O)NC3=CC=C(C=C3)C4=CN=CC=C4 [Wnt-C59] + CC(=O)c1c(C)c2cnc(Nc3ccc(N4CCNCC4)cn3)nc2n(C2CCCC2)c1=O [Palbociclib] (partner 0.5 µM)
How it was run: (§1)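 The day after seeding in 1536-well plates, lung cancer cell lines were treated by pin tool with a single drug, or with a fixed anchor-drug dose together with five library-drug doses (not always all listed) in √10 steps. After 5 days, a combined fix-and-stain solution (final 0.05% Triton X-100, 1% formaldehyde, 1 ug/ml Hoechst) was added. Nuclei counted on 4× images gave relative viability as treated counts over vehicle counts, reported as the median of duplicate plates.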

Wnt-C59 + Luminespib = compound: CC1=NC=CC(=C1)C2=CC=C(C=C2)CC(=O)NC3=CC=C(C=C3)C4=CN=CC=C4 [Wnt-C59] + CCNC(=O)c1noc(-c2cc(C(C)C)c(O)cc2O)c1-c1ccc(CN2CCOCC2)cc1 [Luminespib] (partner 0.01 µM)
How it was run: as §1

Wnt-C59 + Phenformin = compound: CC1=NC=CC(=C1)C2=CC=C(C=C2)CC(=O)NC3=CC=C(C=C3)C4=CN=CC=C4 [Wnt-C59] + N=C(N)NC(=N)NCCc1ccccc1 [Phenformin] (partner 250 µM)
How it was run: as §1

Wnt-C59 + Tozasertib = compound: CC1=NC=CC(=C1)C2=CC=C(C=C2)CC(=O)NC3=CC=C(C=C3)C4=CN=CC=C4 [Wnt-C59] + Cc1cc(Nc2cc(N3CCN(C)CC3)nc(Sc3ccc(NC(=O)C4CC4)cc3)n2)n[nH]1 [Tozasertib] (partner 0.1 µM)
How it was run: as §1

Wnt-C59 + Bortezomib = compound: CC1=NC=CC(=C1)C2=CC=C(C=C2)CC(=O)NC3=CC=C(C=C3)C4=CN=CC=C4 [Wnt-C59] + CC(C)C[C@H](NC(=O)[C@H](Cc1ccccc1)NC(=O)c1cnccn1)B(O)O [Bortezomib] (partner 0.002 µM)
How it was run: as §1

Row | Cell Line | relative viability (Wnt-C59 + Palbociclib; first compound 0.001 µM) | relative viability (Wnt-C59 + Palbociclib; first compound 0.01 µM) | relative viability (Wnt-C59 + Palbociclib; first compound 0.03162 µM) | relative viability (Wnt-C59 + Palbociclib; first compound 0.1 µM) | relative viability (Wnt-C59 + Luminespib; first compound 0.001 µM) | relative viability (Wnt-C59 + Luminespib; first compound 0.01 µM) | relative viability (Wnt-C59 + Luminespib; first compound 0.03162 µM) | relative viability (Wnt-C59 + Luminespib; first compound 0.1 µM) | relative viability (Wnt-C59 + Phenformin; first compound 0.001 µM) | relative viability (Wnt-C59 + Phenformin; first compound 0.01 µM) | relative viability (Wnt-C59 + Phenformin; first compound 0.03162 µM) | relative viability (Wnt-C59 + Phenformin; first compound 0.1 µM) | relative viability (Wnt-C59 + Tozasertib; first compound 0.001 µM) | relative viability (Wnt-C59 + Tozasertib; first compound 0.01 µM) | relative viability (Wnt-C59 + Tozasertib; first compound 0.03162 µM) | relative viability (Wnt-C59 + Tozasertib; first compound 0.1 µM) | relative viability (Wnt-C59 + Bortezomib; first compound 0.001 µM) | relative viability (Wnt-C59 + Bortezomib; first compound 0.01 µM) | relative viability (Wnt-C59 + Bortezomib; first compound 0.03162 µM) | relative viability (Wnt-C59 + Bortezomib; first compound 0.1 µM)
1 | ABC-1 | 0.621 | 0.693 | 1.03 | 0.923 | 1.18 | 0.807 | 0.736 | 0.598 | 0.237 | 0.248 | 0.257 | 0.262 | 0.15 | 0.166 | 0.164 | 0.19 | 0.266 | 0.171 | 0.33 | 0.306
2 | HARA | 0.27 | 0.231 | 0.325 | 0.22 | 0.662 | 0.557 | 0.721 | 0.65 | 0.458 | 0.49 | 0.528 | 0.447 | 0.103 | 0.135 | 0.151 | 0.088 | 1.1 | 1.01 | 1.19 | 1.15
3 | EKVX | 0.389 |  | 0.327 | 0.179 | 0.952 | 0.824 | 0.857 | 0.704 | 0.225 | 0.216 | 0.216 | 0.241 | 0.437 | 0.357 | 0.406 | 0.402 | 1 | 0.928 | 1.06 | 0.895
4 | BEN | 0.477 | 0.437 | 0.538 | 0.534 | 0.331 | 0.423 | 0.457 | 0.598 | 0.292 | 0.27 | 0.269 | 0.247 | 0.478 | 0.474 | 0.497 | 0.501 | 0.821 | 0.88 | 1.03 | 0.878
5 | LCLC-103H | 0.462 | 0.509 | 0.487 | 0.472 | 0.845 | 0.919 | 0.977 | 0.973 | 0.352 | 0.334 | 0.366 | 0.329 | 0.516 | 0.487 | 0.475 | 0.474 | 1.04 | 1.12 | 1.06 | 1.1
6 | NCI-H1734 | 0.382 | 0.334 | 0.36 | 0.364 | 0.233 | 0.241 | 0.196 | 0.138 | 0.389 | 0.356 | 0.478 | 0.354 | 0.258 | 0.233 | 0.288 | 0.139 | 0.906 | 0.778 | 0.992 | 0.914
7 | SW 1573 | 0.413 | 0.368 | 0.466 | 0.408 | 0.227 | 0.398 | 0.37 | 0.177 | 0.343 | 0.41 | 0.431 | 0.365 | 0.144 | 0.196 | 0.342 | 0.167 | 1.04 | 1.1 | 1.11 | 1.04
8 | RERF-LC-KJ | 1.22 | 1.07 | 1.2 | 1.08 | 1.2 | 1.38 | 1.23 | 1.18 | 0.441 | 0.478 | 0.433 | 0.419 | 0.48 | 0.561 | 0.515 | 0.481 | 1.07 | 1.05 | 1.22 | 1.21
9 | NCI-H1651 | 0.526 | 0.499 | 0.452 | 0.479 | 0.864 | 0.862 | 0.97 | 0.835 | 0.344 | 0.345 | 0.377 | 0.332 | 0.918 | 0.537 | 0.761 | 0.744 | 0.928 | 0.985 | 0.97 | 0.913

Reference: the supplement of paper PMC10307832
